Assay results: article PMC6459586, “Structure-Based Design of MptpB Inhibitors That Reduce Multidrug-Resistant Mycobacterium tuberculosis Survival and Infection Burden in Vivo” (Journal of Medicinal Chemistry, 2018)
≈ marks a conversion by molar mass, not a printed value.

What was measured:
MptpB = MptpB (Mycobacterium tuberculosis, UniProt I6WXK4); test: biochemical; set-up: species or system M. tuberculosis
in vitro [1] = type: in vitro ADME, canine; conditions: dog, MDCK
Experimental: (§1) C = (CD(t) × VD) + (CA(t) × VA )
(§2) % Mass Retention = 1 − (CD(t) × VD) + (CA(t) × VA)
(§3) A = Filter Area, VD = Donor Well Volume, VA = Acceptor Well Volume, t = incubation time (secs), CA(t) = Acceptor concentration at time t, CD(t) =Donor concentration at time t, C0 = Initial Donor concentration.
(§4) No Permeability is reported for compounds where % Mass Retention exceeds 50%.
(§5) ADME determinations for compounds in Suppl. Table 2 (Data kindly supplied by […]
(§6) The chemicals used in the assay were supplied by Sigma Aldrich. Briefly, 30 µL of a 20 mM stock solution of the compound to test was added to a vial containing 1. 5 mL of pH 7.4 phosphate buffer saturated octanol and 1.5 mL of octanol saturated pH 7.4 phosphate buffer. The vial was then shaken on a reciprocating shaker at 125 rpm for 40 min.
(§7) Following centrifugation to ensure phase separation, the concentration of the compound in both the octanol and buffer phases was measured by LC -UV. The Log D was then calculated as the Log of ratio of the concentration of compound in the octanol phase to that in the […]
(§8) 1 mL of buffer was added to 1.0 mg of compound and then incubated for 24 hr (Bioshake iQ, 650 rpm, 25 °C). Following filtration under positive pressure, the concentration of compound in solution was assessed by LC -UV in comparison to the response for a kno wn […]
(§9) A known concentration of drug in plasma (20 µM) was dialysed against phosphate buffer for 18 hr at 37 °C. The concentration of compound in the protein-containing and protein-free sides of the dialysis plate were determined by LC-MS/MS. The methodology uses either 100% plasma or plasma diluted with phosphate buffer. The routine operation of the assay employed 10% plasma diluted with phosphate buffer to enable the detection of highly bound compounds. Results were corrected to reflect the result if diluted plasma was […]
(§10) Briefly, monolayer integrity was measured before the assay was initiated measuring the transepithelial electrical resistance values (Ω). Compound was added to either apical (A) or basolateral (B) chamber at a final concentration of 10 µM and after 2 hr incubation at 37 °C, an aliquot from the opposite side of the monolayer was removed and quantified by LC-MS/MS. The apparent permeability (P app) was calculated using Equation 6 :
(§11) Papp [cm.s-1] = (V/(A.C i)) × (Cf/T) Eq.6
(§12) Where V = volume of recipient chamber (mL), A = surface area of membrane insert (cm2), Ci = initial concentration of compound (µM), Cf = final concentration of compound (µM), T = assay time (s). Efflux ratio = Papp B to A / Papp A to B.

[2] = type: in vitro ADME; conditions: human, microsomes, 1 µM
Experimental: Data analysis was performed using Excel (Microsoft, USA).
Human liver microsomes were commercially obtained (Invitrogen, USA). All microsomes were stored at -80 °C. Liver microsomal stability studies were performed manually using the substrate depletion approach, drug was incubated at 37 °C with human liver microsomes (0.5 mg.mL-1) at a final substrate concentration of 1 µM. Aliquots were removed from the incubation at 0, 5, 15, 30 and 45 min and the reaction was terminated by adding to ice-cold organic solvent. Compound concentrations were determined by LC-MS/MS analysis. The natural log of the percentage of compound remaining was plotted against each time point and the slope determined. The half-life (t1/2) and CLint were calculated using Equations 1 and 2, respectively.
CLint (µL.min-1.mg-1) = (LN(2)/t1/2(min))*1000/microsomal protein (mg.mL-1)a Eq. 2 a or cell density (106 cells.mL-1) or P450 concentration (pmol.mL-1)
Percentage liver blood flow (%LBF) was determined by dividing Cl by liver blood flow (20.7 mL/min/kg). Data analysis was performed using Excel (Microsoft, USA).

[3] = Pharmacokinetic evaluation in guinea pigs; type: in vivo; conditions: guinea pig; for AUCinf / Cmax: in vivo, po; for t1/2: oral, dose mg/kg: 13 8, 5 5, 8 3.5, 9 5
Experimental: Guinea pig males (Durkin Hartley) were used to evaluate the pharmacokinetics and tissue distribution of compounds. The route of administration was either intraperitoneal (ip) or oral (po) with dosage varying from 3.5 to 8 mg kg^–1 (op) and 2.5–4 mg kg^–1 (ip). In each case 4 samples were collected per time point at 0.1, 0.5, 2, 4, and 8 h post dose for ip and 0.25, 0.5, 2, 4, and 8 h post dose for po. Compounds were prepared in 10% DMSO, 5% Cremaphor, and 85% physiological saline for IP administration or 0.5% (v/v) Tween 80, 99.5% (v/v) 0.5% methylcellulose for oral administration. Tissue samples (n = 4) from lung, liver, and kidney were collected at the end of the study and snap frozen prior to bioanalysis.

physchem = type: physicochemical; conditions: for logD: pH 7.4
Experimental: as §1, §2, §3, §4, §5, §6, §7, §8, §9, §10, §11, §12

in vitro [4] = type: in vitro ADME; conditions: plasma
Experimental: as §1, §2, §3, §4, §5, §6, §7, §8
A known concentration of drug in plasma (20 µM) was dialysed against phosphate buffer for 18 hr at 37 °C. The concentration of compound in the protein-containing and protein-free sides of the dialysis plate were determined by LC-MS/MS. The methodology uses either 100% plasma or plasma diluted with phosphate buffer. […]
as §10, with “: […]” for “:”

M. tuberculosis = type: in vivo, guinea pig
M. tuberculosis H37Rv = test: Acute guinea pig model of TB infection; type: in vivo; conditions: 28 days of treatment, oral daily, 13 100 mg/kg, RIF 50 mg/kg
[5] = chronic model, 28 days of treatment from day 28, oral daily, 13 100 mg/kg, RIF 50 mg/kg

Sequence of MptpB (I6WXK4 whole entry, looked up): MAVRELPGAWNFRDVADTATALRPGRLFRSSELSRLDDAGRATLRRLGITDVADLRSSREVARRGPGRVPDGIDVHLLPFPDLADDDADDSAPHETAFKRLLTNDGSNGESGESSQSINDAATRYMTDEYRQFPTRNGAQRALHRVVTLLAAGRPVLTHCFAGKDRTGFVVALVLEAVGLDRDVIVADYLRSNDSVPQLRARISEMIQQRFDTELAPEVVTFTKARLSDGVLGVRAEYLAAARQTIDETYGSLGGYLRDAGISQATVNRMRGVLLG

Structure (SMILES)	Papp at 2 h, 10 µM (in vitro [1]) [×10⁻⁶ cm/s]	HLM CLint (% LBF) [2] [% LBF]	AUCinf [3]	Cmax [3]	t1/2 [3]	solubility at 24 h (physchem) [µg/mL]	logD (physchem)	fraction unbound at 18 h, 20 µM (in vitro [4])	further results
O=C(O)c1cc(-c2ccccc2)on1 [Compound 1, 5-Phenylisoxazole-3-carboxylic Acid]	–	–	–	–	–	–	–	–	IC50 (MptpB; IC50 (molecular formula strings csv)): > 500 µM; IC50 (MptpB; IC50 MptpB): > 500 µM
O=C(O)c1noc(-c2ccccc2)c1-c1cccc(-c2cc(Cl)c(O)c(Cl)c2)c1 [Compound 5, 4-(3′,5′-Dichloro-4′-hydroxy-3-biphenyl)-5-phenylisoxazole-3-carboxylic Acid]	0.8	31	BLQ	BLQ	BLQ	1180 (≈ 2.78 mM)	0.84	–	–
O=C(O)c1noc(-c2ccccc2)c1-c1cccc(-c2cc(Cl)cc(Cl)c2)c1 [Compound 8, 4-(3′,5′-Dichoro-3-biphenyl)-5-phenylisoxazole-3-carboxylic Acid]	–	–	BLQ	BLQ	BLQ	–	–	–	–
Cc1cc(-c2cccc(-c3c(C(=O)O)noc3-c3ccccc3)c2)cc(C)c1O [Compound 9, 4-(3′,5′-Dimethyl-4′-hydroxy-3-biphenyl)-5-phenylisoxazole-3-carboxylic Acid]	5.8	36.4	BLQ	BLQ	BLQ	> 1250	1.37	0.001	–
O=C(O)c1noc(-c2ccccc2)c1-c1cccc(-c2ccc(O)c(Cl)c2)c1 [Compound 10, 4-(3′-Chloro-4′-hydroxy-3-biphenyl)-5-phenylisoxazole-3-carboxylic Acid]	3.3	33	–	–	–	> 1250	1.3	0.001	efflux ratio at 2 h, 10 µM (in vitro [1]): 0.8
O=C(O)c1noc(-c2ccccc2)c1-c1cccc(-c2ccc(O)c(F)c2)c1 [Compound 11, 4-(3′-Fluoro-4′-hydroxy-3-biphenyl)-5-phenylisoxazole-3-carboxylic Acid]	2.7	47.7	–	–	–	> 1250	0.67	0.002	efflux ratio at 2 h, 10 µM (in vitro [1]): 0.7
CO[C@H]1/C=C/O[C@@]2(C)Oc3c(C)c(O)c4c(O)c(c(/C=N/N5CCN(C)CC5)c(O)c4c3C2=O)NC(=O)/C(C)=C\C=C\[C@H](C)[C@H](O)[C@@H](C)[C@@H](O)[C@@H](C)[C@H](OC(C)=O)[C@@H]1C [RIF, rifampicin, reference compound]	–	–	–	–	–	–	–	–	Lungs infection burden, average (M. tuberculosis; [5]): 3.7 log CFU; Lungs log reduction relative to vehicle (M. tuberculosis; [5]): 2.0 log; Spleen infection burden, average (M. tuberculosis; [5]): BLQ; Spleen log reduction relative to vehicle (M. tuberculosis; [5]): > 5.0 log; Lungs weight % change relative to Vehicle (M. tuberculosis; guinea pig, in vivo): -29%; Lungs weight, average (M. tuberculosis; guinea pig, in vivo): 3.8 g; Spleen weight % change relative to Vehicle (M. tuberculosis; guinea pig, in vivo): -73%; Spleen weight, average (M. tuberculosis; guinea pig, in vivo): 0.7 g; Lungs infection burden, average (M. tuberculosis H37Rv): BLQ; Spleen infection burden, average (M. tuberculosis H37Rv): BLQ
